# Data published in PubChem BioAssay (NCI).
# “And” between values parts separate entries of the source, which are not always exact repeats. Equal entries are not always repeated.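 48-hour exposure; five concentrations; linearly interpolated endpoints. Here, GI50 denotes the concentration required for 50% inhibition of growth. TGI denotes the concentration required for complete inhibition of growth.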
# Tested on: MDA-MB-435
# Assay: inhibition of tumour cell growth, NCI panel, 48 h
SMILES,TGI,GI50
C=C(C)C(=O)O[C@@H]1C[C@@]2(C)O[C@@H]2C[C@H](O)/C(C)=C/[C@H]2OC(=O)C(=C)[C@@H]21,> 100 µM,
C=CC(=O)Nc1cc(Nc2nccc(-c3cn(C)c4ccccc34)n2)c(OC)cc1N(C)CCN(C)C,3.03 µM and 3.14 µM,1.62 µM and 1.64 µM
Cc1ccc(-c2nc(N3CCNCC3)c3oc(-c4ccc(C)cc4)nc3n2)cc1,6.22 µM,2.3 µM
C=C1C(=O)O[C@H]2[C@H]1CC/C(CNC(=O)c1cc3ccccc3[nH]1)=C\CC[C@@]1(C)O[C@@H]21,4.63 µM,1.58 µM
Cc1cc2c(cc1C)[n+](=O)c(C(=O)c1ccccc1)c(C(F)F)n2[O-],> 100 µM,26.3 µM
Cc1ccc(NC2=C3CCCCC3OC2=O)cc1 (configuration not stated),> 100 µM,55.2 µM
COc1cc2c(cc1OC)C(Cl)C(c1ccc(F)cc1)=C2Cl (configuration not stated),23.6 µM,
COc1ccc2ncnc(Nc3ccc(OCc4ccccc4)cc3)c2c1,> 21.1 µM,7.22 µM
O=C1c2c(F)c(F)c(F)c(F)c2C(=O)N1c1ccc(F)cc1F,38.3 µM,13.9 µM
CC(C)[C@@H]1NC(=O)[C@]2(C)CSC(=N2)c2ccnc(c2)CNC(=O)C[C@@H](/C=C/CCS)OC1=O,6.13 µM,0.111 µM
OC(c1cc(C(F)(F)F)nc2c(C(F)(F)F)cccc12)C1CCCCN1 (configuration not stated),3.66 µM,1.8 µM
C/C=C/[C@@H]1O[C@@H]2COC(=O)C2=C[C@@H]1O,37.3 µM,18.8 µM
COC(=O)/C=C/c1cc(OC(C)=O)c2c(c1)[C@@H](C(=O)OC)[C@H](c1ccc(OC(C)=O)c(OC(C)=O)c1)O2,0.0466 µM,0.0166 µM

# Tested on: NCI-H522 lung
# Assay: inhibition of tumour cell growth, NCI panel, 48 h
SMILES,GI50,TGI
CC[C@@H](c1ccc(O)c(O)c1)[C@@H](CC)c1ccc(O)c(O)c1,2.46 µM,5.63 µM
O=C1OCC2=C1C(c1cccc(Br)c1)c1cc3c(cc1N2CCO)OCCO3 (configuration not stated),0.0116 µM,0.0478 µM
COc1cc(-c2nn(-c3cccc(NC(=O)c4ccccc4)c3)cc2-c2ccncc2)ccc1Cl,0.238 µM,
O=C1CSC(=S)N1/N=C/c1ccc(Cl)c([N+](=O)[O-])c1,,36.8 µM
CCCCCCCCCCSC(=N)N (tested in a mixture with another compound),1.91 µM,4.68 µM
CCOc1ccc(NC2=CC(=O)C(=O)c3ccccc32)cc1,,3.39 µM
COc1cc2c(cc1OC)-c1cc(OC)c(OC)cc1C(CN(C)C)C2 (configuration not stated),> 10 µM,> 10 µM
O=C1c2ccccc2C(=O)c2c(/C=C\N3CCCCC3)ccnc21,,13.3 µM
O=C(NC1CCCCC1)NS(=O)(=O)c1ccc(N2N=C3c4ccccc4CC3C2c2ccc(Cl)cc2)cc1 (configuration not stated),9.43 µM,30.9 µM
c1ccc(-c2n(Cc3ccc4ccccc4n3)cc[n+]2Cc2ccc3ccccc3c2)cc1,0.706 µM,3.42 µM
C[C@@H]1CC[C@H]2C(C)(C)[C@H]3C[C@@]12CC[C@@]3(C)O,,> 100 µM
O=C(Nc1cccc(C(F)(F)F)c1)Nc1cccc(C(F)(F)F)c1,1.2 µM,4.32 µM
CC(C)(C)[Si](C)(C)OC1[C@@H](O[Si](C)(C)C(C)(C)C)[C@@H](CNC(=O)NC(=O)C(F)(F)F)O[C@H]1n1cnc2c(NC(=O)Nc3ccccc3)ncnc21 (some centres not stated),9.14 µM,16.6 µM
CC(=C(c1ccc(OCCN2CCCCC2)cc1)c1ccc(OCCN2CCCCC2)cc1)c1ccc(Cl)cc1,0.411 µM,0.872 µM
C=C(C)C(=O)O[C@@H]1C[C@@]2(C)O[C@@H]2C[C@H](O)/C(C)=C/[C@H]2OC(=O)C(=C)[C@@H]21,,31.6 µM
C=CC(=O)Nc1cc(Nc2nccc(-c3cn(C)c4ccccc34)n2)c(OC)cc1N(C)CCN(C)C,0.169 µM and 0.0657 µM,1.98 µM and 1.53 µM
Cc1ccc(-c2nc(N3CCNCC3)c3oc(-c4ccc(C)cc4)nc3n2)cc1,14.2 µM,36.1 µM
C=C1C(=O)O[C@H]2[C@H]1CC/C(CNC(=O)c1cc3ccccc3[nH]1)=C\CC[C@@]1(C)O[C@@H]21,1.57 µM,3.31 µM
Cc1cc2c(cc1C)[n+](=O)c(C(=O)c1ccccc1)c(C(F)F)n2[O-],7.82 µM,27.2 µM
Cc1ccc(NC2=C3CCCCC3OC2=O)cc1 (configuration not stated),29 µM,> 100 µM
COc1cc2c(cc1OC)C(Cl)C(c1ccc(F)cc1)=C2Cl (configuration not stated),,21.8 µM
COc1ccc2ncnc(Nc3ccc(OCc4ccccc4)cc3)c2c1,4.95 µM,> 17.1 µM
O=C1c2c(F)c(F)c(F)c(F)c2C(=O)N1c1ccc(F)cc1F,6.58 µM,> 25 µM
CC(C)[C@@H]1NC(=O)[C@]2(C)CSC(=N2)c2ccnc(c2)CNC(=O)C[C@@H](/C=C/CCS)OC1=O,0.249 µM,5.14 µM
OC(c1cc(C(F)(F)F)nc2c(C(F)(F)F)cccc12)C1CCCCN1 (configuration not stated),1.65 µM,3.2 µM
C/C=C/[C@@H]1O[C@@H]2COC(=O)C2=C[C@@H]1O,3.95 µM,> 29.1 µM
COC(=O)/C=C/c1cc(OC(C)=O)c2c(c1)[C@@H](C(=O)OC)[C@H](c1ccc(OC(C)=O)c(OC(C)=O)c1)O2,0.0348 µM,2.13 µM

# Tested on: PC-3 prostate
# Assay: inhibition of tumour cell growth, NCI panel, 48 h
SMILES,GI50,TGI
CC[C@@H](c1ccc(O)c(O)c1)[C@@H](CC)c1ccc(O)c(O)c1,12.4 µM,28.9 µM
O=C1OCC2=C1C(c1cccc(Br)c1)c1cc3c(cc1N2CCO)OCCO3 (configuration not stated),0.0546 µM,8.74 µM
COc1cc(-c2nn(-c3cccc(NC(=O)c4ccccc4)c3)cc2-c2ccncc2)ccc1Cl,0.333 µM,> 33.5 µM
O=C1CSC(=S)N1/N=C/c1ccc(Cl)c([N+](=O)[O-])c1,,65.6 µM
CCCCCCCCCCSC(=N)N (tested in a mixture with another compound),5.01 µM,20.1 µM
CCOc1ccc(NC2=CC(=O)C(=O)c3ccccc32)cc1,,19.8 µM
COc1cc2c(cc1OC)-c1cc(OC)c(OC)cc1C(CN(C)C)C2 (configuration not stated),> 10 µM,> 10 µM
O=C1c2ccccc2C(=O)c2c(/C=C\N3CCCCC3)ccnc21,,28 µM
O=C(NC1CCCCC1)NS(=O)(=O)c1ccc(N2N=C3c4ccccc4CC3C2c2ccc(Cl)cc2)cc1 (configuration not stated),4.05 µM,18.8 µM
c1ccc(-c2n(Cc3ccc4ccccc4n3)cc[n+]2Cc2ccc3ccccc3c2)cc1,1.31 µM,5.51 µM
C[C@@H]1CC[C@H]2C(C)(C)[C@H]3C[C@@]12CC[C@@]3(C)O,,> 100 µM
O=C(Nc1cccc(C(F)(F)F)c1)Nc1cccc(C(F)(F)F)c1,0.374 µM,12.5 µM
CC(C)(C)[Si](C)(C)OC1[C@@H](O[Si](C)(C)C(C)(C)C)[C@@H](CNC(=O)NC(=O)C(F)(F)F)O[C@H]1n1cnc2c(NC(=O)Nc3ccccc3)ncnc21 (some centres not stated),1.82 µM,7.91 µM
CC(=C(c1ccc(OCCN2CCCCC2)cc1)c1ccc(OCCN2CCCCC2)cc1)c1ccc(Cl)cc1,0.412 µM,0.825 µM
C=C(C)C(=O)O[C@@H]1C[C@@]2(C)O[C@@H]2C[C@H](O)/C(C)=C/[C@H]2OC(=O)C(=C)[C@@H]21,,> 100 µM
C=CC(=O)Nc1cc(Nc2nccc(-c3cn(C)c4ccccc34)n2)c(OC)cc1N(C)CCN(C)C,2.74 µM and 2.11 µM,12.1 µM and 5.55 µM
Cc1ccc(-c2nc(N3CCNCC3)c3oc(-c4ccc(C)cc4)nc3n2)cc1,1.77 µM,3.43 µM
C=C1C(=O)O[C@H]2[C@H]1CC/C(CNC(=O)c1cc3ccccc3[nH]1)=C\CC[C@@]1(C)O[C@@H]21,2.03 µM,4.78 µM
Cc1cc2c(cc1C)[n+](=O)c(C(=O)c1ccccc1)c(C(F)F)n2[O-],16.1 µM,> 100 µM
Cc1ccc(NC2=C3CCCCC3OC2=O)cc1 (configuration not stated),49.7 µM,> 100 µM
COc1cc2c(cc1OC)C(Cl)C(c1ccc(F)cc1)=C2Cl (configuration not stated),,24.9 µM
COc1ccc2ncnc(Nc3ccc(OCc4ccccc4)cc3)c2c1,8.54 µM,> 25 µM
O=C1c2c(F)c(F)c(F)c(F)c2C(=O)N1c1ccc(F)cc1F,6.21 µM,27.2 µM
CC(C)[C@@H]1NC(=O)[C@]2(C)CSC(=N2)c2ccnc(c2)CNC(=O)C[C@@H](/C=C/CCS)OC1=O,0.0669 µM,> 100 µM
OC(c1cc(C(F)(F)F)nc2c(C(F)(F)F)cccc12)C1CCCCN1 (configuration not stated),2.17 µM,5.88 µM
C/C=C/[C@@H]1O[C@@H]2COC(=O)C2=C[C@@H]1O,18.7 µM,36.6 µM
